Holding throughout (assay type): in vivo
The subject of test [1] is Mediterranean Fruitfly (Ceratitis capitata). The experiment in a line: Mediterranean Fruitfly (Ceratitis capitata) egg microtiterplate test. On the procedure:
Mediterranean Fruitfly (Ceratitis capitata)
The active compounds are formulated in 1:3 DMSO:water. 50 to 80 eggs are placed into microtiterplates filled with 0.5% agar-agar and 14% diet in water. The eggs are sprayed with 5 μl of the test solution, the plates are sealed with pierced foils and kept at 27-29° C. and 75-85% humidity under fluorescent light for 6 days. Mortality is assessed on the basis of the agility of the hatched larvae. Tests are replicated 2 times.
(§1) The presence of a synergistic effect in terms of percent control, between the two mixing partners (X and Y) is calculated using the Colby equation (Colby, S. R., 1967, Calculating Synergistic and Antagonistic Responses in Herbicide Combinations, Weeds, 15, 20-22):
(§2) When the observed combined control effect is greater than the expected combined control effect (E), then the combined effect is synergistic.

The subject of test [2] is Boll Weevil (Anthonomus grandis). The experiment in a line: Boll Weevil (Anthonomus grandis) egg microtiterplate test. How it is done: Boll Weevil (Anthonomus grandis)
The active compounds are formulated in 1:3 DMSO:water. 10 to 15 eggs are placed into microtiterplates filled with 2% agar-agar in water and 300 ppm formaline. The eggs are sprayed with 20 μl of the test solution, the plates are sealed with pierced foils and kept at 24-26° C. and 75-85% humidity with a day/night cycle for 3 to 5 days. Mortality is assessed on the basis of the remaining unhatched eggs or larvae on the agar surface and/or quantity and depth of the digging channels caused by the hatched larvae. Tests are replicated 2 times.
as §1, §2

For test [3], the system named is Tobacco Budworm (Heliothis virescens). The experiment in a line: Tobacco Budworm (Heliothis virescens) test protocol no. II. On the procedure:
Tobacco Budworm (Heliothis virescens)—Test Protocol no. II
The active compounds are formulated in 1:3 DMSO:water. 15 to 25 eggs are placed into microtiterplates filled with diet. The eggs are sprayed with 10 μl of the test solution, the plates are sealed with pierced foils and kept at 27-29° C. and 75-85% humidity under fluorescent light for 6 days. Mortality is assessed on the basis of the agility and of comparative feeding of the hatched larvae. Tests are replicated 2 times.
as §1, §2

Test [4] concerns Vetch Aphid (Megoura viciae). As to the kind of experiment: Vetch Aphid (Megoura viciae) leaf disk microtiterplate test. On the procedure:
Vetch Aphid (Megoura viciae)
The active compounds are formulated in 1:3 DMSO:water. Bean leaf disks are placed into microtiterplates filled with 0.8% agar-agar and 2.5 ppm OPUS™. The leaf disks are sprayed with 2.5 μl of the test solution and 5 to 8 adult aphids are placed into the microtiterplates which are then closed and kept at 22-24° C. and 35-45% under fluorescent light for 6 days. Mortality is assessed on the basis of vital, reproduced aphids. Tests are replicated 2 times.
as §1, §2

Where [5] appears, read: 0 + 0.1 ppm (compound I-1 alone).
The mark [6] stands for this setting: 0 + 100 ppm (compound I-1 alone).
The mark [7] stands for this setting: 0 + 0.3 ppm (compound I-1 alone).

As to `CC(C)N1C(=O)N(c2ccccc2)CS/C1=N\C(C)(C)C` [buprofezine], the “Average Control %” value in test [1] (3 + 0 ppm (buprofezine alone)) and in test [2] (10 + 0 ppm (buprofezine alone)) was 0% throughout.
Consider `N#CC(C#N)(CCC(F)(F)F)CC(F)(F)C(F)(F)C(F)(F)C(F)F` [compound I-1, 2-(2,2,3,3,4,4,5,5-octafluoro-pentyl)-2-(3,3,3-trifluoro-propyl)-malononitrile], for which the “Average Control %” value in test [1] (setting [5]), in test [1] (0 + 30 ppm (compound I-1 alone)), in test [1] (setting [6]), in test [3] (setting [7]), in test [2] (setting [5]) and in test [2] (setting [7]) was 0% in each case. Also, the “Average Control %” value in test [2] (0 + 3 ppm (compound I-1 alone)), in test [4] (setting [5]) and in test [4] (setting [6]) was 0% in each case.
Take `CC(C)c1cc(Oc2ccccc2)cc(C(C)C)c1NC(=S)NC(C)(C)C` [diafenthiuron]: the “Average Control %” value in test [3] (300 + 0 ppm (diafenthiuron alone)) was determined as 0%.
As to `N#Cc1nn(-c2c(Cl)cc(C(F)(F)F)cc2Cl)c(N)c1[S+]([O-])C(F)(F)F` (stereo not drawn) [fipronil], the “Average Control %” value is 0% in test [1] (1 + 0 ppm (fipronil alone)), 0% in test [2] (1 + 0 ppm (fipronil alone)) and 50% in test [4] (3 + 0 ppm (fipronil alone)).
With `O=[N+]([O-])NC1=NCCN1Cc1ccc(Cl)nc1` [imidacloprid], the “Average Control %” value in test [2] (3 + 0 ppm (imidacloprid alone)) is given as 0%.
spinosad: the “Average Control %” value in test [1] (0.3 + 0 ppm (spinosad alone)) and in test [4] (300 + 0 ppm (spinosad alone)) was 0% each time.
